ChEMBL document CHEMBL5360560, “Anti-Vibrio potential of natural products from marine microorganisms” (Eur J Med Chem, 2023)
In brackets after ≈: the same amount, converted by molar mass.

Experiments:
Format in all cases: functional
[1] = system: Vibrio parahaemolyticus; test: Bactericidal activity against Vibrio parahaemolyticus ATCC 17802 assessed as bacterial growth inhibition mesured after 48 hrs by broth dilution assay
[2] = system: Vibrio parahaemolyticus; test: Antimicrobial activity against Vibrio parahaemolyticus ATCC 17802 assessed as bacterial growth inhibition mesured after 48 hrs by broth dilution assay
[3] = system: Vibrio parahaemolyticus; test: Antibacterial activity against Vibrio parahaemolyticus assessed as bacterial growth inhibition by broth microdilution
[4] = system: Vibrio parahaemolyticus; test: Antimicrobial activity against Vibrio parahaemolyticus assessed as bacterial growth inhibition by MTT assay
[5] = system: Vibrio vulnificus; test: Antimicrobial activity against Vibrio vulnificus assessed as bacterial growth inhibition by MTT assay
[6] = system: Vibrio parahaemolyticus; test: Antimicrobial activity against Vibrio parahaemolyticus ATCC 17802 assessed as bacterial growth inhibition by microplate reader assay
[7] = system: Vibrio alginolyticus; test: Antimicrobial activity against Vibrio alginolyticus assessed as bacterial growth inhibition by microplate reader assay
[8] = system: Vibrio alginolyticus; test: Antimicrobial activity against Vibrio alginolyticus MISR 30816 assessed as bacterial growth inhibition measured after 24 hrs by broth microdilution assay
[9] = system: Vibrio vulnificus; test: Antimicrobial activity against Vibrio vulnificus MISR 20716 assessed as bacterial growth inhibition measured after 24 hrs by broth microdilution assay
[10] = system: Vibrio parahaemolyticus; test: Antimicrobial activity against Vibrio parahaemolyticus MISR 21116 assessed as bacterial growth inhibition measured after 24 hrs by broth microdilution assay
[11] = system: Vibrio harveyi; test: Antimicrobial activity against Vibrio harveyi assessed as bacterial growth inhibition by two fold dilution assay
[12] = system: Vibrio brasiliensis; test: Antimicrobial activity against Vibrio brasiliensis assessed as bacterial growth inhibition
[13] = system: Vibrio mediterranei; test: Antimicrobial activity against Vibrio mediterranei assessed as bacterial growth inhibition
[14] = system: Vibrio parahaemolyticus; test: Antibacterial activity against Vibrio parahaemolyticus assessed as bacterial growth inhibition by agar dilution method
[15] = system: Vibrio vulnificus; test: Antimicrobial activity against Vibrio vulnificus QDIO-4 assessed as bacterial growth inhibition by microtiter plate reader analysis
[16] = system: Vibrio alginolyticus; test: Antimicrobial activity against Vibrio alginolyticus QDIO-7 assessed as bacterial growth inhibition by microtiter plate reader analysis
[17] = system: Vibrio harveyi; test: Antimicrobial activity against Vibrio harveyi QDIO-9 assessed as bacterial growth inhibition measured after 24 hrs by microtitre plate reader assay
[18] = system: Vibrio anguillarum; test: Antimicrobial activity against Vibrio anguillarum QDIO-8 assessed as bacterial growth inhibition measured after 24 hrs by microtitre plate reader assay
[19] = system: Vibrio parahaemolyticus; test: Antimicrobial activity against Vibrio parahaemolyticus QDIO-10 assessed as bacterial growth inhibition measured after 24 hrs by microtitre plate reader assay
[20] = system: Vibrio proteolyticus; test: Antimicrobial activity against Vibrio proteolyticus assessed as bacterial growth inhibition
[21] = system: Vibrio harveyi; test: Antimicrobial activity against Vibrio harveyi assessed as bacterial growth inhibition
[22] = system: Vibrio natriegens; test: Antimicrobial activity against Vibrio natriegens assessed as bacterial growth inhibition
[23] = system: Vibrio cholerae; test: Antimicrobial activity against Vibrio cholerae assessed as bacterial growth inhibition
[24] = system: Vibrio parahaemolyticus; test: Antimicrobial activity against Vibrio parahaemolyticus assessed as bacterial growth inhibition
[25] = system: Vibrio campbellii; test: Antimicrobial activity against Vibrio campbellii MCCC E333 assessed as bacterial growth inhibition by resazurin dye based assay
[26] = system: Vibrio vulnificus; test: Antimicrobial activity against Vibrio vulnificus MCCC E1758 assessed as bacterial growth inhibition by resazurin dye based assay
[27] = system: Vibrio rotiferianus; test: Antibacterial activity against Vibrio rotiferianus MCCC E385 assessed as bacterial growth inhibition measured after 24 hrs by resazurin dye based assay
[28] = system: Vibrio splendidus; test: Antimicrobial activity against Vibrio splendidus assessed as zone of inhibition in diameter per disk at 50 ug; settings: read-out: IZ
[29] = system: Vibrio harveyi; test: Antimicrobial activity against Vibrio harveyi assessed as zone of inhibition in diameter per disk at 50 ug; settings: read-out: IZ
[30] = system: Vibrio anguillarum; test: Antimicrobial activity against Vibrio anguillarum assessed as zone of inhibition in diameter per disk at 50 ug; settings: read-out: IZ
[31] = system: Vibrio parahaemolyticus; test: Antimicrobial activity against Vibrio parahaemolyticus assessed as zone of inhibition in diameter per disk at 50 ug; settings: read-out: IZ
[32] = system: Vibrio campbellii; test: Antibacterial activity against Vibrio campbellii MCCC E333 assessed as cell growth inhibition measured after 24 hrs by resazurin dye based assay
[33] = system: Vibrio vulnificus; test: Antibacterial activity against Vibrio vulnificus MCCC E1758 assessed as cell growth inhibition measured after 24 hrs by resazurin dye based assay
[34] = system: Vibrio rotiferianus; test: Antibacterial activity against Vibrio rotiferianus MCCC E385 assessed as cell growth inhibition measured after 24 hrs by resazurin dye based assay
[35] = system: Vibrio ichthyoenteri; test: Antimicrobial activity against Vibrio ichthyoenteri assessed as bacterial growth inhibition
[36] = system: Vibrio vulnificus; test: Antimicrobial activity against Vibrio vulnificus QDIO-7 assessed as bacterial growth inhibition by microplate reader assay
[37] = system: Vibrio harveyi; test: Antimicrobial activity against Vibrio harveyi QDIO-7 assessed as bacterial growth inhibition by microplate reader assay
[38] = system: Vibrio parahaemolyticus; test: Antimicrobial activity against Vibrio parahaemolyticus QDIO-10 assessed as bacterial growth inhibition
[39] = system: Vibrio harveyi; test: Antimicrobial activity against Vibrio harveyi QDIO-9 assessed as bacterial growth inhibition

Structure (SMILES): COc1cc(C)c(Oc2cc(C)cc(O)c2)c(O)c1 [CYPERIN]
- MBC [1]: 0.312 µM (≈ 0.0812 µg/mL)
- MIC [2]: 0.312 µM (≈ 0.0812 µg/mL)

Structure (SMILES): COC(=O)[C@@H](C)CCc1cc(O)c(C)cc1O
- MIC [3]: 12.5 µg/mL (≈ 52.5 µM)

Structure (SMILES): CC(=O)c1ccccc1C[C@@H](O)/C=C/CC(=O)O[C@@H]1/C=C/C=C\C[C@H](O)C[C@@H](O)/C=C/C=C/CCC[C@@H](C)OC(=O)/C=C\C=C\C1
- MIC [4]: 3.12 µg/mL (≈ 4.93 µM)
- MIC [5]: 3.12 µg/mL (≈ 4.93 µM)

Structure (SMILES): COc1c(Cl)c(C)c(Cl)c2c1[C@H]1c3c(O)c(C)cc(O)c3C[C@H]1C(C)(C)O2 (racemic)
- MIC [6]: 10 µM
- MIC [7]: 10 µM

Structure (SMILES): C[C@@H]1CCC/C=C/[C@@H]2O[C@H](C[C@@H](O)C/C=C\C=C\[C@@H](O)C/C=C/C=C\C(=O)O1)[C@H]2O
- MIC [8]: 64 µg/mL (≈ 153 µM)
- MIC [9]: 64 µg/mL (≈ 153 µM)
- MIC [10]: 64 µg/mL (≈ 153 µM)

Structure (SMILES): COc1c(Cl)c(C)c(Cl)c2c1[C@H]1c3c(O)c(C)cc(O)c3C[C@@H]1C(C)(C)O2 (racemic)
- MIC [6]: 20 µM
- MIC [7]: 20 µM

Structure (SMILES): COC(=O)C1=CC(=O)C=C(OC)C12Oc1cc(C)cc(OC)c1C2=O (stereo unspecified) [TRYPACIDIN]
- MIC [11]: 31.2 µg/mL (≈ 90.6 µM)

Structure (SMILES): CC(C)[C@@H](C)/C=C/[C@@H](C)[C@H]1CC[C@@H]2[C@]1(C)CCC1[C@@]23OO[C@]2(C=C3O)C[C@@H](O)CC[C@]12C (stereo partly specified)
- MIC [12]: 32 µg/mL (≈ 72 µM)
- MIC [13]: 8 µg/mL (≈ 18 µM)

Structure (SMILES): COC(=O)/C=C/C=C/C(=O)N[C@H]1CCCNC(=O)[C@H](C)N(C)C(=O)[C@H](C(C)C)N(C)C1=O
- MIC [14]: 6.25 µM (≈ 2.82 µg/mL)

Structure (SMILES): CO[C@H](C)[C@@H](/C=C/C=C/C(=O)N(C)[C@H]1CCCN(C)C(=O)[C@H](C)N(C)C(=O)[C@H](C(C)C)N(C)C1=O)OC
- MIC [14]: 25 µM (≈ 13.1 µg/mL)

Structure (SMILES): CC(=O)OC/C=C\c1ccc(O)cc1CO
- MIC [15]: 8 µg/mL
- MIC [16]: 8 µg/mL

Structure (SMILES): COC(=O)c1ccc([C@](C)(O)CCCC(C)(C)O)c(O)c1
- MIC [17]: 4 µg/mL (≈ 13.5 µM)
- MIC [18]: 4 µg/mL (≈ 13.5 µM)
- MIC [19]: 4 µg/mL (≈ 13.5 µM)

Structure (SMILES): C=CC(C)(C)C1(CC2NC(=O)c3ccccc3N(C)C2=O)C(=O)N(O)c2ccccc21 (stereo unspecified)
- MIC [20]: 0.1 µg/mL (≈ 0.238 µM)
- MIC [21]: 1 µg/mL (≈ 2.38 µM)
- MIC [22]: 1 µg/mL (≈ 2.38 µM)

Structure (SMILES): O=C(O)c1cc(Cl)c[nH]1
- MIC [23]: 100 µg/mL (≈ 687 µM)
- MIC [24]: 25 µg/mL (≈ 172 µM)

Structure (SMILES): Cc1c(O)cc(O)cc1[C@H](C)[C@@H](C)OC=O
- MIC [25]: 15.6 µg/mL (≈ 69.6 µM)
- MIC [26]: 15.7 µg/mL (≈ 70 µM)

Structure (SMILES): CC[C@H](C)/C=C/C1=CC2=C(Cl)C(=O)[C@@]3(C)OC(=O)C(C(=O)[C@@H](C)[C@@H](C)O)=C3C2=CN1NC(=O)c1ccc(O)cc1
- MIC [27]: 7.3 µg/mL (≈ 12.9 µM)

Structure (SMILES): Cc1cc(O)cc(O)c1-c1cc2cc(O)cc(O)c2c(=O)o1
- zone of inhibition at 50 µg/disc [28]: 7 mm
- zone of inhibition at 50 µg/disc [29]: 7 mm
- zone of inhibition at 50 µg/disc [30]: 7 mm
- zone of inhibition at 50 µg/disc [31]: 7 mm

Structure (SMILES): CC(C)(O)CCCC(C)(O)c1ccc(C(=O)O)cc1O (stereo unspecified)
- MIC [17]: 4 µg/mL (≈ 14.2 µM)
- MIC [18]: 4 µg/mL (≈ 14.2 µM)
- MIC [19]: 4 µg/mL (≈ 14.2 µM)

Structure (SMILES): COc1cc2oc3c(OC)c(-c4ccc(O)c(CC=C(C)C)c4)cc(OC)c3c2cc1O
- MIC [32]: 15.6 µg/mL (≈ 35.9 µM)
- MIC [33]: 7.77 µg/mL (≈ 17.9 µM)
- MIC [34]: 7.75 µg/mL (≈ 17.8 µM)

Structure (SMILES): Cc1cc(O)cc(Oc2cc(C)cc(O)c2)c1 [DIORCINOL]
- MIC [35]: 40 µg/mL (≈ 174 µM)

Structure (SMILES): COC(=O)CCc1oc2cc(O)cc(C)c2c1-c1cc(O)c(C)c(O)c1C
- MIC [36]: 64 µg/mL
- MIC [37]: 32 µg/mL

Structure (SMILES): C=C[C@@]1(C)CCC2=C(C(=O)C=C3C(C)(C)CCC[C@]32O)[C@@H]1O
- MIC [38]: 8 µg/mL (≈ 26.5 µM)
- MIC [39]: 8 µg/mL (≈ 26.5 µM)

Structure (SMILES): Cc1cc(O)cc(Oc2cc(C)cc(O)c2O)c1 [CORDYOL C]
- MIC [35]: 40 µg/mL (≈ 162 µM)
